Active and inactive are the calls of the source. No cut-off for these calls is given here.
How the values were obtained:
[1] = test system: Human betaherpesvirus 5; assay: Inhibition of HCMV endonuclease at 1 mg/mL
[2] = test system: Salmonella enteritidis; assay: Antibacterial activity against Salmonella enteritidis ATCC 13076 at 100 ug/disk; format: functional, organism-based; conditions: Salmonella enterica subsp. enterica serovar Enteritidis
[3] = test system: RAW264.7; assay: Antiinflammatory activity in LPS-stimulated mouse RAW264.7 cells assessed as reduction in iNOS protein expression at 10 uM by immunoblot analysis relative to control; format: functional; design: scale not given: the % may be the effect or the level left
[4] = test system: RAW264.7; assay: Antiinflammatory activity in LPS-stimulated mouse RAW264.7 cells assessed as reduction in COX2 protein expression at 10 uM by immunoblot analysis; format: functional; design: scale not given: the % may be the effect or the level left

Row | Activity [1] | SMILES | Activity [2] | Activity [3] | Activity [4]
1 | inactive | C=C1C(=O)O[C@@H]2C[C@H]1[C@]1(O)C/C(C)=C/CC/C(C)=C/CC[C@@]2(CO)O1 (relative stereo) [DURUMHEMIKETALOLIDE A] | inactive | 11% | 66.7%
2 | inactive | C=C1C(=O)O[C@H]2C[C@H]1[C@]1(O)C/C(C)=C/CC/C(C)=C/CC[C@@]2(COC(C)=O)O1 (relative stereo) [DURUMHEMIKETALOLIDE B] | inactive | 6.4% | inactive
3 | inactive | C=C1C(=O)O[C@H]2C[C@H]1[C@]1(O)C/C(C)=C/CC/C(C)=C/CC[C@]2(COC(C)=O)O1 (relative stereo) [DURUMHEMIKETALOLIDE C] | inactive | 0% | 34.7%
4 | – | O=C(/C=C/c1ccc(O)c(O)c1)OCCc1ccccc1 [CAFFEIC ACID PHENETHYL ESTER] | – | 1.5% | 70.2%
